Measured values reported in publication PMC9505218, “Nitrostilbenes: Synthesis and Biological Evaluation as Potential Anti-Influenza Virus Agents” (Pharmaceuticals, 2022).
Where “and” joins values, the source holds several entries; their conditions need not be identical. Equal values may be shown once. Entries after “also recorded” stand apart in the source; their conditions may differ. Read-outs that look alike come from different tables or passages of the source.

Columns and labels:
[1] = test system: influenza A Puerto Rico 8/34/H1N1 (PR8) virus; assay: microbe, parasite or virus in culture; type: cell-based; details: for IC50: Influenza A virus, A549, 24 h, read-out: IC50 (concentration causing 50% reduction in viral infection); for Selectivity Index (SI): ratio CC50/IC50, A549
[2] = MTT cytotoxicity assay; type: cell-based, human; details: human
Method: (§1) The cytotoxicity of RSV derivatives was evaluated on A549 cells using MTT (3-(4,5-dimethylthiazol-2-yl)-2,5-diphenyl tetrazolium bromide) reagent (Sigma-Aldrich, St. Louis, MO, USA). In this assay, cells were seeded in a 96-well plate at a concentration of 2 × 10^4/well in DMEM without phenol red and supplemented with 10% FBS. The compounds were dissolved in DMSO and added to the cell monolayer. After 24 h, 10 µL of the 5 mg/mL solution of MTT was added to the cell culture, which was incubated at 37 °C for 3 h. Then, the medium was solubilized in absolute isopropanol containing 0.1 N HCl. The absorbance of converted dye was measured in an ELISA plate reader at a wavelength of 590 nm. The results were used to calculate the 50% cytotoxic concentration (CC50), defined as the concentration of RSV derivatives required to reduce cell viability by 50% compared with the solvent-treated (DMSO) control condition.

[3] = test system: influenza A PR/8/H1N1 virus; type: cell-based; details: supernatants from A549 treated with 10-30 μg/mL, 24 h
[4] = test system: GSH-mediated antioxidant response; assay: Glutathione assay in infected A549 cells; type: cell-based, human; details: A549, 24 h PR8 infection and treatment
Method: The total glutathione was analyzed by the Glutathione Assay Kit (ADI-900-160 Enzo) following the manufacturer’s instructions. For GSSG quantification, the samples were deproteinized with metaphosphoric acid, and an aliquot was incubated with 2-vinylpyridine to derivatize the reduced form, GSH [46]. The GSH levels were obtained by the subtraction of GSSG from the total glutathione and then normalized to the protein content of each sample determined by the Bradford method (Bio-Rad, Hercules, CA, USA).

[5] = test system: influenza A PR/8/H1N1 virus; type: cell-based
[6] = test system: influenza A PR/8/H1N1 virus; type: cell-based; remark: listed apart in the source
[7] = test system: A549 cells; assay: MTT cytotoxicity assay; type: cell-based, human
Method: as §1

[8] = test system: GSH level; set-up: method as in PMID 15838800; details: infected conditions; cited from earlier work
[9] = A549, MTT, 24 h, read-out: CC50 (concentration required to reduce cell viability by 50%)

SMILES | IC50 [1] | Selectivity Index (SI) [1] | CC50 at 24 h [2] | rescue of GSH-mediated antioxidant response (total glutathione, GSH/GSSG) [4] | also measured
Oc1ccc(/C=C/c2ccccc2)cc1Cl [Compound 1] | 20.7 µg/mL and 89 µM | 4.2 | 87.3 µg/mL and 378 µM | – | –
Oc1ccc(/C=C/c2ccc(Cl)cc2Cl)cc1Cl [Compound 2] | 13.5 µg/mL and 45 µM | 2.9 | 39.5 µg/mL and 131 µM | – | –
Oc1ccc(/C=C/c2ccc(Cl)cc2Cl)cc1 [Compound 3] | 12.2 µg/mL and 46 µM | 2.4 | 30.3 µg/mL and 114 µM | – | –
Oc1ccc(/C=C/c2ccc(C(F)(F)F)cc2)cc1Cl [Compound 4] | 14.6 µg/mL and 48 µM | 2.6 | 38.8 µg/mL and 129 µM | – | –
Oc1ccc(/C=C/c2ccc(C(F)(F)F)cc2)cc1 [Compound 5] | 23.4 µg/mL and 88 µM | 2.5 | 59 µg/mL and 223 µM | – | –
O=[N+]([O-])c1ccc(/C=C/c2ccc(O)c(Cl)c2)cc1 [Compound 6] | 17.1 µg/mL and 62 µM | 12.4 | – | do not rescue | inhibition of HA expression [1]: 75%; HA protein expression on MDCK cells infected with supernatants [3]: markedly reduced; CC50 at 24 h [2, 9]: 212 µg/mL and 770 µM; viral titer / viral particle production (HAU) [5]: markedly decreased; also recorded: drastically reduced; early viral nucleoprotein (NP) expression [6]: decrease
O=[N+]([O-])c1ccc(/C=C/c2ccc(O)cc2)cc1 [Compound 7] | 19.5 µg/mL and 80 µM | 5.9 | – | do not rescue | HA protein expression on MDCK cells infected with supernatants [3]: markedly reduced; CC50 at 24 h [2, 9]: 116 µg/mL and 481 µM; viral titer / viral particle production (HAU) [5]: markedly decreased; also recorded: drastically reduced; early viral nucleoprotein (NP) expression [6]: decrease
N#Cc1ccc(/C=C/c2ccc(O)cc2)cc1 [Compound 8] | 45.1 µg/mL and 203 µM | 2 | 92 µg/mL and 415 µM | – | –
COc1ccc(/C=C/c2ccc(O)cc2)cc1 [Compound 9] | 31.7 µg/mL and 104 µM | 3.3 | 106 µg/mL and 466 µM | – | –
O=[N+]([O-])c1ccc(/C=C/c2ccc(O)c(Br)c2)cc1 [Compound 12, (E)-2-Bromo-4-(4-Nitrostyryl)Phenol] | – | – | – | do not rescue | cytotoxicity on the A549 cell monolayer [7]: did not show cytotoxicity; melting point: 200.2 to 200.4 °C
O=[N+]([O-])c1cc(/C=C/c2ccc(Cl)cc2)ccc1O [Compound 13, (E)-4-(4-Chlorostyryl)-2-Nitrophenol] | – | – | – | do not rescue | cytotoxicity on the A549 cell monolayer [7]: did not show cytotoxicity; melting point: 176.5 to 177.9 °C; early viral nucleoprotein (NP) expression [6]: decrease
Oc1ccc(C=Cc2cc(O)cc(O)c2)cc1 [RSV, 3,4′,5-trihydroxystilbene] | – | – | – | – | rescue of GSH level [8]: did not rescue
